Where “and” joins values, the source holds several entries; their conditions need not be identical. Equal values may be shown once. Toxic doses and inconclusive results are not listed.
Tested on: CD2F1 mice, L1210 leukemia ip, survival T/C
Test: NCI In Vivo Anticancer Drug Screen. Data for tumor model L1210 Leukemia (intraperitoneal) in CD2F1 (CDF1) mice
Conditions: higher = longer survival
Method in brief: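 Mice carrying a transplanted tumor received test compound or vehicle alone. The value is the measurement in the treated group divided by that in the vehicle-treated control group.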

[1] = endpoint: mean survival time, dose: 100.0 mg/kg/injection, schedule: Q01DX009 (ip), vehicle: saline with Tween-80
[2] = endpoint: mean survival time, dose: 100.0 mg/kg/injection, schedule: Q04DX003 (ip), vehicle: saline
[3] = endpoint: mean survival time, dose: 200.0 mg/kg/injection, schedule: Q01DX009 (ip), vehicle: saline with Tween-80
[4] = endpoint: mean survival time, dose: 200.0 mg/kg/injection, schedule: Q04DX003 (ip), vehicle: saline
[5] = endpoint: mean survival time, dose: 400.0 mg/kg/injection, schedule: Q04DX003 (ip), vehicle: saline
[6] = endpoint: mean survival time, dose: 400.0 mg/kg/injection, schedule: Q01DX009 (ip), vehicle: saline with Tween-80
[7] = endpoint: mean survival time, dose: 25.0 mg/kg/injection, schedule: Q04DX003 (ip), vehicle: saline
[8] = endpoint: mean survival time, dose: 50.0 mg/kg/injection, schedule: Q04DX003 (ip), vehicle: saline
[9] = endpoint: mean survival time, dose: 50.0 mg/kg/injection, schedule: Q01DX009 (ip), vehicle: saline with Tween-80
[10] = endpoint: mean survival time, dose: 100.0 mg/kg/injection, schedule: Q01DX001 (ip), vehicle: saline
[11] = endpoint: mean survival time, dose: 200.0 mg/kg/injection, schedule: Q01DX001 (ip), vehicle: saline
[12] = endpoint: mean survival time, dose: 400.0 mg/kg/injection, schedule: Q01DX001 (ip), vehicle: saline
[13] = endpoint: mean survival time, dose: 100.0 mg/kg/injection, schedule: Q01DX001 (ip), vehicle: saline with Tween-80
[14] = endpoint: mean survival time, dose: 200.0 mg/kg/injection, schedule: Q01DX001 (ip), vehicle: saline with Tween-80
[15] = endpoint: mean survival time, dose: 400.0 mg/kg/injection, schedule: Q01DX001 (ip), vehicle: saline with Tween-80
[16] = endpoint: mean survival time, dose: 100.0 mg/kg/injection, schedule: Q04DX003 (ip), vehicle: saline with Tween-80
[17] = endpoint: mean survival time, dose: 200.0 mg/kg/injection, schedule: Q04DX003 (ip), vehicle: saline with Tween-80

## CCNc1nc(Cl)nc(NC(C)C)n1
[1]
  T/C: 93 % of control
[2]
  T/C: 95 % of control
[3]
  T/C: 98 % of control
[4]
  T/C: 101 % of control
[5]
  T/C: 92 % of control

## CC(C)CN(CC(C)C)c1ccc([N+](=O)[O-])cc1[N+](=O)[O-]
[1]
  T/C: 97 % of control
[3]
  T/C: 95 % of control
[6]
  T/C: 94 % of control

## C[N+](C)(C)C12CCCC1S(=O)(=O)C2 (centres undefined)
[7]
  T/C: 106 % of control
[8]
  T/C: 98 % of control
[2]
  T/C: 96 % of control

## Cc1ccc(NC(=O)OCCOc2ccccc2Cl)cc1[N+](=O)[O-]
endpoint: mean survival time, dose: 12.5 mg/kg/injection, schedule: Q01DX009 (ip), vehicle: saline with Tween-80
  T/C: 98 % of control
endpoint: mean survival time, dose: 25.0 mg/kg/injection, schedule: Q01DX009 (ip), vehicle: saline with Tween-80
  T/C: 103 % of control
[9]
  T/C: 88 % of control and 103 % of control

## Cc1c[nH]c(=S)[nH]c1=O.[Pd]
endpoint: mean survival time, dose: 3.12 mg/kg/injection, schedule: Q04DX003 (ip), vehicle: saline
  T/C: 94 % of control
endpoint: mean survival time, dose: 6.25 mg/kg/injection, schedule: Q04DX003 (ip), vehicle: saline
  T/C: 102 % of control
endpoint: mean survival time, dose: 12.5 mg/kg/injection, schedule: Q04DX003 (ip), vehicle: saline
  T/C: 97 % of control
[7]
  T/C: 102 % of control
[8]
  T/C: 100 % of control
[2]
  T/C: 100 % of control
[4]
  T/C: 96 % of control

## O=C(O)CCC(O)C(=O)O.[NH-]C1CCCCC1[NH-].[Pt+2] (centres undefined)
endpoint: median survival time, dose: 3.12 mg/kg/injection, schedule: Q04DX003 (ip), vehicle: saline
  T/C: 120 % of control and 110 % of control
endpoint: median survival time, dose: 6.25 mg/kg/injection, schedule: Q04DX003 (ip), vehicle: saline
  T/C: 120 % of control
endpoint: median survival time, dose: 25.0 mg/kg/injection, schedule: Q04DX003 (ip), vehicle: saline
  T/C: 158 % of control
endpoint: median survival time, dose: 50.0 mg/kg/injection, schedule: Q04DX003 (ip), vehicle: saline
  T/C: 170 % of control and 186 % of control
endpoint: median survival time, dose: 100.0 mg/kg/injection, schedule: Q04DX003 (ip), vehicle: saline
  T/C: 365 % of control

## C=CC1(C)CC(=O)C2(O)C(C)(O1)C(OC(C)=O)C(O)C1C(C)(C)CCC(O)C12C (centres undefined)
endpoint: median survival time, dose: 4.0 mg/kg/injection, schedule: Q01DX005 (ip), vehicle: other
  T/C: 98 % of control
endpoint: median survival time, dose: 8.0 mg/kg/injection, schedule: Q01DX005 (ip), vehicle: other
  T/C: 101 % of control
endpoint: median survival time, dose: 16.0 mg/kg/injection, schedule: Q01DX005 (ip), vehicle: other
  T/C: 93 % of control

## Nc1ncc[nH]1
endpoint: mean survival time, dose: 50.0 mg/kg/injection, schedule: Q01DX001 (ip), vehicle: saline
  T/C: 110 % of control
[10]
  T/C: 108 % of control
[11]
  T/C: 110 % of control
[12]
  T/C: 108 % of control

## COc1ccc(/C=C2/Cc3cccc4c([N+](=O)[O-])ccc2c34)cc1
[13]
  T/C: 89 % of control
[14]
  T/C: 86 % of control
[15]
  T/C: 102 % of control

## CCOC(=O)/C(O)=C\c1cc(OC)nnc1Cl
endpoint: mean survival time, dose: 12.5 mg/kg/injection, schedule: Q04DX002 (ip), vehicle: saline with Tween-80
  T/C: 114 % of control
endpoint: mean survival time, dose: 25.0 mg/kg/injection, schedule: Q04DX002 (ip), vehicle: saline with Tween-80
  T/C: 101 % of control
endpoint: mean survival time, dose: 50.0 mg/kg/injection, schedule: Q04DX002 (ip), vehicle: saline with Tween-80
  T/C: 101 % of control

## S=C(NCCCCCNC(=S)Nc1ccccc1)Nc1ccccc1
endpoint: mean survival time, dose: 100.0 mg/kg/injection, schedule: Q04DX003 (ip), vehicle: acetone
  T/C: 96 % of control
endpoint: mean survival time, dose: 200.0 mg/kg/injection, schedule: Q04DX003 (ip), vehicle: acetone
  T/C: 108 % of control

## N#C/C(=C\c1cc(Cl)cc(Cl)c1O)c1ccc([N+](=O)[O-])cc1
[9]
  T/C: 89 % of control
[1]
  T/C: 95 % of control
[3]
  T/C: 96 % of control

## COc1ccc(/C=C/C(CC(NO)c2ccc(OC)cc2)=N/O)cc1 (centres undefined)
endpoint: mean survival time, dose: 12.5 mg/kg/injection, schedule: Q04DX003 (ip), vehicle: saline with Tween-80
  T/C: 101 % of control
endpoint: mean survival time, dose: 25.0 mg/kg/injection, schedule: Q01DX001 (ip), vehicle: saline with Tween-80
  T/C: 103 % of control
endpoint: mean survival time, dose: 25.0 mg/kg/injection, schedule: Q04DX003 (ip), vehicle: saline with Tween-80
  T/C: 101 % of control
endpoint: mean survival time, dose: 50.0 mg/kg/injection, schedule: Q01DX001 (ip), vehicle: saline with Tween-80
  T/C: 104 % of control
endpoint: mean survival time, dose: 50.0 mg/kg/injection, schedule: Q04DX003 (ip), vehicle: saline with Tween-80
  T/C: 102 % of control
[16]
  T/C: 95 % of control
[14]
  T/C: 97 % of control
[17]
  T/C: 98 % of control

## Nc1nc(-c2cc(Br)ccc2N=NN2CCCC2)nc2ccc(Br)cc12
endpoint: mean survival time, dose: 100.0 mg/kg/injection, schedule: Q04DX002 (ip), vehicle: Klucel (hydroxypropylcellulose) (HPC)
  T/C: 95 % of control
endpoint: mean survival time, dose: 200.0 mg/kg/injection, schedule: Q04DX002 (ip), vehicle: Klucel (hydroxypropylcellulose) (HPC)
  T/C: 113 % of control
endpoint: mean survival time, dose: 400.0 mg/kg/injection, schedule: Q04DX002 (ip), vehicle: Klucel (hydroxypropylcellulose) (HPC)
  T/C: 98 % of control

## Cc1ccc(N2CCN(CCCCCC(=O)O)CC2)cc1Cl
[16]
  T/C: 106 % of control
endpoint: mean survival time, dose: 176.0 mg/kg/injection, schedule: Q04DX003 (ip), vehicle: saline with Tween-80
  T/C: 117 % of control
[17]
  T/C: 104 % of control
endpoint: mean survival time, dose: 264.0 mg/kg/injection, schedule: Q04DX003 (ip), vehicle: saline with Tween-80
  T/C: 113 % of control

## OCC1OC(n2cnc3c(SCc4ccccc4)ncnc32)C(O)C1O (centres undefined)
endpoint: mean survival time, dose: 78.0 mg/kg/injection, schedule: Q01DX001 (ip), vehicle: saline
  T/C: 104 % of control
[2]
  T/C: 101 % of control
endpoint: mean survival time, dose: 117.0 mg/kg/injection, schedule: Q01DX001 (ip), vehicle: saline
  T/C: 109 % of control
endpoint: mean survival time, dose: 132.0 mg/kg/injection, schedule: Q01DX009 (ip), vehicle: saline
  T/C: 176 % of control
endpoint: mean survival time, dose: 200.0 mg/kg/injection, schedule: Q01DX009 (ip), vehicle: saline
  T/C: 187 % of control
[4]
  T/C: 98 % of control
endpoint: mean survival time, dose: 400.0 mg/kg/injection, schedule: Q01DX001 (ip), vehicle: other
  T/C: 152 % of control
[5]
  T/C: 104 % of control

## C(=C\c1ccccn1)/c1ccccc1
[13]
  T/C: 100 % of control
[1]
  T/C: 94 % of control
[14]
  T/C: 89 % of control
[3]
  T/C: 101 % of control
[15]
  T/C: 92 % of control

## CN(C)/C=N/NC(=O)C(O)c1ccccc1 (centres undefined)
[1]
  T/C: 102 % of control
[3]
  T/C: 102 % of control
[6]
  T/C: 100 % of control

## O=[N+]([O-])c1ccc(OCCCBr)cc1
[16]
  T/C: 91 % of control
[17]
  T/C: 91 % of control
endpoint: mean survival time, dose: 400.0 mg/kg/injection, schedule: Q04DX003 (ip), vehicle: saline with Tween-80
  T/C: 91 % of control

## CC[C@@]1(OC(=O)CN2CCCC2)C(=O)OCc2c1cc1n(c2=O)Cc2cc3ccccc3nc2-1
endpoint: median survival time, dose: 6.25 mg/kg/injection, schedule: Q04DX002 (ip), vehicle: water
  T/C: 108 % of control
endpoint: median survival time, dose: 12.5 mg/kg/injection, schedule: Q04DX002 (ip), vehicle: water
  T/C: 113 % of control
endpoint: median survival time, dose: 50.0 mg/kg/injection, schedule: Q04DX002 (ip), vehicle: water
  T/C: 158 % of control and 166 % of control

## Nc1ccc2ccccc2c1-c1c(N)ccc2ccccc12
endpoint: mean survival time, dose: 18.7 mg/kg/injection, schedule: Q04DX002 (ip), vehicle: saline with Tween-80
  T/C: 91 % of control
endpoint: mean survival time, dose: 37.5 mg/kg/injection, schedule: Q04DX002 (ip), vehicle: saline with Tween-80
  T/C: 91 % of control
endpoint: mean survival time, dose: 75.0 mg/kg/injection, schedule: Q04DX002 (ip), vehicle: saline with Tween-80
  T/C: 102 % of control

## NC(CS(=O)(=O)O)c1ccccc1 (centres undefined)
[10]
  T/C: 110 % of control
[2]
  T/C: 96 % of control
[11]
  T/C: 110 % of control
[4]
  T/C: 98 % of control
[12]
  T/C: 110 % of control
[5]
  T/C: 97 % of control

## O=S(=O)(N=C1C(Cl)=C(Cl)C(=NS(=O)(=O)c2ccccc2)C(Cl)=C1Cl)c1ccccc1
endpoint: mean survival time, dose: 100.0 mg/kg/injection, schedule: Q04DX003 (ip), vehicle: Klucel (hydroxypropylcellulose) (HPC)
  T/C: 97 % of control
endpoint: mean survival time, dose: 200.0 mg/kg/injection, schedule: Q04DX003 (ip), vehicle: Klucel (hydroxypropylcellulose) (HPC)
  T/C: 95 % of control
endpoint: mean survival time, dose: 400.0 mg/kg/injection, schedule: Q04DX003 (ip), vehicle: Klucel (hydroxypropylcellulose) (HPC)
  T/C: 93 % of control

## COc1cc2c(cc1OC)-c1nc(N)sc1CC2
endpoint: mean survival time, dose: 100.0 mg/kg/injection, schedule: Q04DX002 (ip), vehicle: saline with Tween-80
  T/C: 107 % of control
endpoint: mean survival time, dose: 200.0 mg/kg/injection, schedule: Q04DX002 (ip), vehicle: saline with Tween-80
  T/C: 98 % of control
endpoint: mean survival time, dose: 400.0 mg/kg/injection, schedule: Q04DX002 (ip), vehicle: saline with Tween-80
  T/C: 103 % of control

## CNC(=O)Nc1nncs1
[1]
  T/C: 97 % of control
[3]
  T/C: 104 % of control
[6]
  T/C: 92 % of control
